Patent publication US20210177722A1, “Phytic Acid Ester Derivative” (NATIONAL UNIVERSITY CORPORATION KUMAMOTO UNIVERSITY, priority 2018, published 2021)

Assays:
HeLa cell = assay: Quantitative determination of IP6 in cell (LC/MS of IP6 methyl ester); assay type: cell-based; settings: HeLa cells, 10 μM, 30 minutes
Experimental: In this example, incorporation of Pro-IP6 into a HeLa cell was quantitatively determined.
HeLa cells (5×10^5 cells/well, culture fluid: 1 mL) were seeded in a 3.5 cm dish to be cultured for 24 hours. Thereafter, DMSO (1%, Fujifilm Wako Pure Chemical Corporation), an aqueous solution (1%) of IP6 (final concentration: 10 μM, Sigma Aldrich), or a DMSO solution (1%) of Pro-IP6 (final concentration: 10 μM) synthesized in Example 1 was added thereto, and the resultant was cultured for another 30 minutes. HeLa cells were cultured with neither IP6 nor Pro-IP6 added, followed by adding the same amount of DMSO thereto, and the resultant was used as a negative control.
Thereafter, the resultant was washed with 1× PBS (−) once, and the resultant cells were scraped with a cell scraper, transferred to a 1.5 mL tube, and washed with 1× PBS (−) three times. To the thus obtained precipitate, 350 μl of MeOH (Fujifilm Wako Pure Chemical Corporation) and 1% NP-40 (Nacalai Tesque, Inc.) were added, followed by sonication (10 minutes). After equilibrating a column (Oasis WAX 1cc, Waters) with MeOH (1 mL) and H2O (1 mL), a disrupted cell extract was added thereto. Thereafter, the column was washed with 50% MeOH (1 mL), and eluted with 50% MeOH (200 μL×2) containing 2 mol/L of HCl (Fujifilm Wako Pure Chemical Corporation). The thus obtained eluate was concentrated, and dissolved in MeOH (50 μL), and trimethylsilyldiazomethane (200 μl, Tokyo Chemical Industry Co., Ltd.) was added thereto, followed by stirring at 50° C. for 1 hour under argon atmosphere. The reaction was stopped by adding H2O (100 μL). Through a reaction of trimethylsilyidiazomethane with IP6, IP6 methyl ester is obtained.
The thus obtained sample (IP6 methyl ester) was measured by LC/MS [column: MastroC18 2.1 mm×100 mm, […] (Shimadzu GLC Ltd.), mobile phase: 0.1% formic acid solution (Fujifilm Wako Pure Chemical Corporation), acetonitrile (Fujifilm Wako Pure Chemical Corporation)] [LC:LC-20AD (Shimadzu), MS: amaZon speed (BRUKER)].

[1] = system: Jurkat cell (human T-lymphocyte cell); assay: MTT assay, Jurkat cell; assay type: cell-based
Experimental: (§1) In this example, the cytotoxic effect of Pro-IP6 on four types of blood cancer cell lines and a cell derived from a healthy person was examined by MTT assay. […] It is possible to check viability of cultured cells by MTT assay. Cancer cell lines (1.74×10^4 cells/well, culture fluid: 200 μL) • MT-2 cell (HTLV transformed human T cell leukemia cell) • […] cell (human T-lymphoblastoid cell) • Jurkat cell (human T-lymphocyte cell) • K562 cell (chronic myelogenous leukemia cell) Each of the above-described types of cells was seeded in a 96-well plate, and was cultured for 8 hours for each of the various cancer cell lines and for 16 hours for PMBC. Thereafter, DMSO (1%, Fujifilm Wako Pure Chemical Corporation), an aqueous solution (1%) of IP6 (final concentration: 1 μM or 10 μM, Sigma Aldrich), or a DMSO solution (1%) of Pro-IP6 (final concentration: 1 μM or 10 μM) was added thereto, followed by culturing for 8 hours or 24 hours. An MTT reagent (Dojindo Laboratories, 1.1 mg/mL) was added in an amount of 50 μL per well, and the resultant was cultured for another 4 hours. The thus precipitated crystal was collected, a supernatant was removed, and 100 μL of DMSO was added thereto to completely dissolve. The resultant solution was measured for an absorbance (550 nm).

AMPK = assay: Western blotting (2), anti-pAMPK antibody, Jurkat cell; assay type: cell-based, human; settings: 1 μM or 10 μM, 8 hours or 24 hours
Experimental: In this example, in the same manner as in Example 4, the action mechanism for killing cells by Pro-IP6 was checked by Wester blotting using a Jurkat cell and various antibodies. Jurkat cells (1×10^5 cells/well, culture fluid: 500 μL) were seeded in a 24-well plate to be cultured overnight. Thereafter, DMSO (1%, Fujifilm Wako Pure Chemical Corporation), an aqueous solution (1%) of IP6 (final concentration 10 μM, Sigma Aldrich), or a DMSO solution (1%) of Pro-IP6 (final concentration: 1 μM or 10 μM) was added thereto, followed by culturing for 8 hours or 24 hours. A supernatant was removed, the resultant was washed with 1× PBS (−) once, Laemmli sample buffer was added thereto, and the resultant was boiled at 100° C. for […] to dissolve the cells. The resultant was subjected to electrophoresis and then transferred onto a membrane (Millipore). […] Detection was performed using ImmunoStar LD (Fujfilm Wako Pure Chemical Corporation).

[2] = system: MT-2 cell (HTLV transformed human T cell leukemia cell); assay: MTT assay, MT-2 cell; assay type: cell-based; settings: 1 μM or 10 μM, 8 hours or 24 hours
Experimental: as §1

[3] = system: K562 cell (chronic myelogenous leukemia cell); assay: MTT assay, K562 cell; assay type: cell-based; settings: 1 μM or 10 μM, 8 hours or 24 hours
Experimental: as §1

Jurkat cell = assay: Cell viability test (flowcytometry, Annexin V-FITC / 7-AAD); assay type: cell-based, human; settings: 10 μM, 24 hours
Experimental: In this example, a cell viability test (flowcytometry) was performed using a Jurkat cell, that is, a human T cell-derived leukemia cell. Jurkat cells (1×10^5 cells/well, culture fluid: 500 μL) were seeded in a 24-well plate (Iwaki) to be cultured overnight. Thereafter, DMSO (1%, Fujifilm Wako Pure Chemical Corporation), an aqueous solution (1%) of IP6 (final concentration: 10 μM, Sigma Aldrich), or a DMSO solution (1%) of Pro-IP6 (myo-inositol hexaphosphate dodecakis(butyryloxymethyl) ester (4) synthesized in Example 1) (final concentration: 10 μM) was added thereto, and the resultant was cultured for 24 hours. A supernatant was removed, the resultant was washed with 1× PBS (−) once, 100 μL of 5× binding solution (PromoCell) was added thereto, and Annexin V-FITC (PromoCell) and 7-AAD (Becton, Dickinson and Company) were added thereto to perform a reaction for 15 minutes. Thereafter, measurement was performed using FACS Calibur (Becton, Dickinson and Company), and analysis was performed using FlowJo (Becton, Dickinson and Company).

PARP-1 = assay: Western blotting (1), anti-PARP-1 antibody, Jurkat cell; assay type: cell-based, human; settings: 10 μM
Experimental: In this example, the action mechanism for killing cells by Pro-IP6 was studied by Wester blotting using a Jurkat cell and various antibodies. Jurkat cells (1×10^5 cells/well, culture fluid: 500 μL) were seeded in a 24-well plate to be cultured overnight. Thereafter, DMSO (1%, Fujifilm Wako Pure Chemical Corporation), an aqueous solution (1%) of IP6 (final concentration: 10 μM, Sigma Aldrich), or a DMSO solution (1%) of Pro-IP6 (final concentration: 1 μM or 10 μM) was added thereto, followed by culturing for 8 hours or 24 hours. A supernatant was removed, the resultant was washed with 1× PBS (−) once, Laemmli sample buffer was added thereto, and the resultant was boiled at 100° C. for 1 hour to dissolve the cells. […] Detection was performed using ImmunoStar LD (Fujifilm Wako Pure Chemical Corporation).

For `CCCC(=O)OCOP(=O)(OCOC(=O)CCC)O[C@H]1[C@H](OP(=O)(OCOC(=O)CCC)OCOC(=O)CCC)[C@@H](OP(=O)(OCOC(=O)CCC)OCOC(=O)CCC)[C@H](OP(=O)(OCOC(=O)CCC)OCOC(=O)CCC)[C@@H](OP(=O)(OCOC(=O)CCC)OCOC(=O)CCC)[C@H]1OP(=O)(OCOC(=O)CCC)OCOC(=O)CCC` [Pro-IP6, myo-inositol hexaphosphate dodecakis(butyryloxymethyl) ester], the “incorporation into HeLa cell (IP6 methyl ester by LC/MS vs negative control)” value (HeLa cell) was “well incorporated”, the “amount of IP6 methyl ester observed in cell relative to that of IP6” value (HeLa cell; LC/MS) was “not less than 200 times” and the “cytotoxic effect at 10 μM” value [1] was “most of the cells were killed”. For the same molecule, the “lowering of relative cell viability” value ([1]; Jurkat cell, 1 μM or 10 μM, 8 hours or 24 hours) was no less than 25%, the “activation of AMPK (pAMPK)” value (AMPK) was “activates AMPK” and the “lowering of relative cell viability” value [2] was no less than 25%. For the same molecule, the “lowering of relative cell viability” value [3] was no less than 25%, the “induction of apoptosis (Annexin V-FITC / 7-AAD flow cytometry)” value (Jurkat cell) was “induction of apoptosis in a Jurkat cell, that is, human T cell-derived leukemia cell, was observed” and the “cleavage of PARP-1 (induction of apoptosis)” value (PARP-1) was “cleavage of PARP-1 and Caspase-3 was observed”.
